Data published in PubChem BioAssay (NCI).
Where “and” joins values, the source holds several entries; their conditions need not be identical. Equal values may be shown once.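 Dose response: 5 concentrations. Exposure: 48 h. Format: 96-well plates. Endpoint: linear interpolation; highest concentration if not reached. GI50: concentration for 50% inhibition of growth. TGI: total growth inhibition.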

Key:
Experiment in all cases: NCI tumour cell line growth inhibition, 48 h
[1] = system: M14 melanoma
[2] = system: SF-268 CNS
[3] = system: KM12 colon
[4] = system: MALME-3M melanoma
[5] = system: SF-295 CNS
[6] = system: SF-539 CNS
[7] = system: NCI-H226 lung
[8] = system: K-562 leukemia
[9] = system: SK-MEL-5 melanoma
[10] = system: HCT-116 colon

Compound | GI50 [1] [µM] | TGI [1] | GI50 [2] [µM] | TGI [2] | GI50 [3] [µM] | TGI [3] | GI50 [4] [µM] | TGI [4] | GI50 [5] [µM] | TGI [5] | GI50 [6] [µM] | TGI [6] | GI50 [7] [µM] | TGI [7] | GI50 [8] [µM] | TGI [8] | GI50 [9] [µM] | TGI [9] | GI50 [10] [µM] | TGI [10]
CS(=O)(=O)c1ccc(Oc2cc(F)cc(C#N)c2)c2c1[C@H](O)[C@H](F)[C@@H]2F | > 100 | > 100 µM | > 100 | > 100 µM | > 100 | > 100 µM | > 100 | > 100 µM | > 100 | > 100 µM | > 100 | > 100 µM | > 100 | > 100 µM | > 100 | > 100 µM | > 100 | > 100 µM | > 100 | > 100 µM
CNc1ccccc1C(=O)N/N=C/C=C/c1ccccc1 | 0.6 | 24.8 µM | 7.23 | > 100 µM | 0.547 | 50.5 µM | 9.91 | 97.4 µM | 1.57 | > 54.3 µM | 1.09 | 4.91 µM | 10 | > 100 µM | 0.44 | > 100 µM | 0.849 | 31.3 µM | 0.499 | > 100 µM
O=[N+]([O-])c1ccc(N2CCN(Cc3ccccc3)CC2)c2c1no[n+]2[O-] | 1.8 | 3.52 µM | 1.42 | 3.22 µM | 1.48 | 3.05 µM | 1.6 | 3.3 µM | 1.38 | 2.84 µM | 1.54 | 3 µM | 1.57 | 3.46 µM | 1.05 | 2.98 µM | 1.73 | 3.73 µM | 0.95 | 2.38 µM
CC1=CC=NN2C(=O)[C@H](C)C2C1 (stereo not given in full) |  | > 100 µM |  | > 100 µM |  | > 100 µM |  | > 100 µM |  | > 100 µM |  | > 100 µM |  | > 100 µM |  | > 100 µM |  | > 100 µM |  | > 100 µM
O=C1c2ccccc2-c2c1c1ccccc1c(=O)n2CCCNCCCn1c2c(c3ccccc3c1=O)C(=O)c1ccccc1-2 | 9.15 | 30.4 µM | 7.13 | > 30.6 µM | 2.9 | 9.65 µM | 12.6 | 26.2 µM | 3.52 | > 21.8 µM | 3.83 | 13 µM | 4.42 | 13.9 µM | 4.07 |  | 7.21 | 16.9 µM | 1.75 | > 28.9 µM
CSC(=S)c1ccc(C(=S)SC)cc1 |  | > 100 µM |  | > 100 µM |  | > 100 µM |  | > 100 µM |  | > 100 µM |  | > 100 µM |  | > 100 µM |  | > 100 µM |  | > 100 µM |  | > 100 µM
O=C1OC(c2ccco2)=N/C1=C\c1ccc(Cl)c(Cl)c1 |  | > 100 µM |  | > 100 µM |  | > 100 µM |  | > 100 µM |  | > 100 µM |  | > 100 µM |  | > 100 µM |  | > 100 µM |  | > 100 µM |  | > 100 µM
C/C(=N\N=C(N)N)C(CN(CC(C)C)CC(C)C)C(=O)Nc1ccc(C)cc1C (stereo not given) |  | > 100 µM |  | > 100 µM |  | > 100 µM |  | > 100 µM |  | > 100 µM |  | > 100 µM |  | > 100 µM |  | > 100 µM |  | > 100 µM |  | > 100 µM
C/C(CN1C(=O)c2ccccc2C1=O)=N\NS(=O)(=O)c1cccc([N+](=O)[O-])c1 |  | > 100 µM |  | > 100 µM |  | > 100 µM |  | > 100 µM |  | > 100 µM |  | > 100 µM |  | > 100 µM |  | > 100 µM |  | > 100 µM |  | > 100 µM
CC(C)(C)NNC(=O)/C(=C/c1ccc(Oc2ccc(Cl)c(Cl)c2)cc1)NC(=O)c1ccccc1 |  | > 100 µM |  | > 100 µM |  | > 100 µM |  | > 100 µM |  | > 100 µM |  | > 100 µM |  | > 100 µM |  | > 100 µM |  | > 100 µM |  | > 100 µM
Cc1ccc(NC(c2ccccc2)c2ccc3cccnc3c2O)cc1 (stereo not given) |  | 19 µM |  | 13.6 µM |  | 19.1 µM |  | 13.8 µM |  | 16.1 µM |  | 8.18 µM |  | 8.4 µM |  | 30 µM |  | 15.4 µM |  | 13.8 µM
O=C1C2C(C(=O)N1O)N(Cc1ccccc1)C(=O)N2Cc1ccccc1 (stereo not given) |  | > 100 µM |  | > 100 µM |  | > 100 µM |  | > 100 µM |  | > 100 µM |  | > 100 µM |  | > 100 µM |  | > 100 µM |  | > 100 µM |  | > 100 µM
Cc1ccc(S(=O)(=O)N/N=C(\CCN2CCCC2)CC(c2ccccc2)c2c(O)c3ccccc3oc2=O)cc1 (stereo not given) |  | > 100 µM |  | > 100 µM |  | > 100 µM |  | > 100 µM |  | > 100 µM |  | > 100 µM |  | > 100 µM |  | > 100 µM |  | > 100 µM |  | > 100 µM
COc1ccc(C(=O)Cn2c(C(=O)c3ccc(OC)cc3)nc3ccccc32)cc1 | 1.59 | > 100 µM | 6.25 | > 100 µM | 1.16 | > 100 µM | 2.91 | > 100 µM | 2.08 | > 100 µM | 2.8 | > 100 µM | > 28.5 | > 100 µM | 0.483 | > 100 µM | 2.36 | > 27.1 µM | 2.36 | > 100 µM
COc1ccc(C(=O)/C=C/c2ccc(O)c(O)c2F)c(OC)c1 |  | 16.7 µM and 28 µM | 8.75 | 75 µM and 59.1 µM |  | 27.8 µM and 23.9 µM | 12 | 22.6 µM and 25.2 µM | 10.9 | 26.3 µM and 34.4 µM | 4.5 | 15.7 µM and 28.5 µM |  | 37.1 µM and 46.3 µM |  | 75 µM and 18.1 µM | 2.7 | 13.6 µM and 19.6 µM | 2.66 | 14 µM and 10 µM
N#CC1=C(N)Oc2cc3c(cc2C1c1cccs1)OCO3 (stereo not given) | 0.387 | > 100 µM | 0.654 | > 85.6 µM | 0.325 | > 59.7 µM | 0.58 | > 100 µM | 0.393 | > 100 µM | 0.747 | 11.2 µM | 0.653 | > 100 µM | 0.205 | > 100 µM | 0.34 | > 43.5 µM | 0.407 | > 62.3 µM
O=C(Cc1nc2ccccc2s1)C(=O)Nc1ccc(Cl)cc1 |  | > 100 µM |  | > 100 µM |  | > 100 µM |  | > 100 µM |  | > 100 µM |  | > 100 µM |  | > 100 µM |  | > 100 µM |  | > 100 µM |  | > 100 µM
